From patent US7192768B2, “Synchronization of the cytoplasmatic and the nuclear maturation of oocytes in vitro” (Novo Nordisk A/S, priority 2001, dated 2007)
Marks after values point to notes of the source that are not given here.

How the values were obtained:
human oocytes = details: EGF 2 ng/ml, 30 h culture; cited from earlier work
[1] = tested on: cumulus-enclosed oocytes (CEO); experiment: FSH induced resumption of meiosis and cumulus expansion of hypoxanthine arrested mouse oocytes cultured in vitro (22-hydroxycholesterol); format: cell-based; design: Cumulus expansion: key to the marks not given beside the values
Protocol: Immature female mice (B6D2-F1 strain C57B1/2J) were kept under controlled light and temperature conditions with free access to food and water. Ovarian stimulation was performed when the mice weighed 10–16 grams and consisted of an intra-peritoneal injection of Gonadoplex (Leo, Copenhagen, Denmark) containing 7.5 U/mouse. The animals were killed by cervical dislocation 44–48 h later. The media used for the culture of oocytes consisted of α-Minimum Essential Medium (α-MEM), with Earles Balanced Salt Solution (EBSS), containing 4 mM hypoxanthine, 3 mg/ml bovine serum albumin, 0.23 mM pyruvate, 2 mM glutamine (all Sigma, U.S.A) and 100 IU/ml penicillin, 100 ug/ml Streptomycin. This medium was termed “HX-medium”. A media similar to the above but without HX are termed “maturation-medium”. Oocytes were isolated in HX-medium under a stereo microscope by manual rupture of follicles using a pair of 5.5-gauge needles. Spherical oocytes with intact cumulus cells connection and displaying germinal vesicle were categorized as cumulus-enclosed oocytes (CEO). Oocytes were rinsed 3 times in fresh HX-medium. Prior to each experimental set-up, all oocytes from 10–15 mice were pooled. Only oocytes with a germinal vesicle present were used and distributed in separate wells of a 4-well dish (Nuncoln, Denmark) containing 1 ml of HX-medium. Each well contained 20–30 oocytes and was cultured at 37° C. in 100% humidity in air with 5% CO2. Each experiment was repeated at least 4 times. At the end of the culture period (i.e 24 h), oocytes with GV or GVBD, or polar body (PB) were counted using an inverted microscope with differential interference contrast equipment (Leica, German). […]
Graduation of cumulus expansion: 0: No expansion, compact cumulus layer surrounding the oocyte; +: A slight cumulus expansion, the most peripheral cumulus cell looks a little fluffy; ++: good expansion of cumulus cell without a spherical cloud like expansion; +++: full cumulus expansion with a fluffy cloud like expansion with extended distance between the somatic cells.

cultured mouse oocytes = details: WO 98/28323; cited from earlier work
[2] = tested on: cumulus enclosed mouse oocytes; experiment: FSH induced resumption of meiosis of mouse oocytes cultured in vitro (dbc-AMP control medium); format: cell-based; details: for % GVBD / % PB (PB/GVBD): 22-24 h
Protocol: Immature female mice (B6D2-F1 strain C57B1/2J) were kept under controlled light and temperature conditions with free access to food and water. Ovarian stimulation was performed when the mice weighed 10–16 grams and consisted of an intra-peritoneal injection of Gonadoplex (Leo, Copenhagen, Denmark) containing 7.5 U/mouse. The animals were killed by cervical dislocation 44–48 h later. The media used for the culture of oocytes consisted of α-Minimum Essential Medium (α-MEM), with Earles Balanced Salt Solution (EBSS), 200 μM dibuturyl-cyclic-adenosine-mono-phosphate (dbc-AMP), 3 mg/ml Bovine Serum Albumin, 0,23 mM pyruvate, 2 mM glutamine, 100 IU/ml penicillin and 100 mg/ml streptomycin (i.e. control medium). The ovaries were recovered and oocytes isolated from the ovaries by puncturing individual follicles using a 25 gauge needle. The oocytes were washed 3 times in control medium before the start of each experiment. Cumulus enclosed oocytes were cultured separately in 4-well dishes (Nuncleon, Roskilde, Denmark), 0.4 ml medium in each well containing control medium or medium supplemented with ketoconazole in a 100% humidified atmosphere of 5% CO2 with 95% air at 37° C. The culture period was 22–24 h. By the end of the culture period, germinal vesicle breakdown (GVBD) was scored by examining the oocyte in an inverted microscope. The percentage of oocytes with GVBD per total number of oocytes (% GVBD) was calculated.

[3] = tested on: cumulus-enclosed oocytes (CEO); experiment: FSH induced resumption of meiosis of hypoxanthine arrested mouse oocytes cultured in vitro (ketoconazole); format: cell-based; details: HX-medium; for % GVBD / % PB (PB/GVBD): 24 h
Protocol: Oocytes were obtained from immature mice (Kunming white mouse) weighing 14–16 g that were kept under controlled light and temperature conditions with free access to water. The mice received an intra peritoneal injection of 0.1 ml pregnant mare's serum gonadotrophin (PMSG, Sigma, New York, U.S.A) containing 10 IU PMSG. Forty-six hours later, the animals were killed by cervical dislocation. The ovaries were dissected out and placed in M199 culture medium (GIBCO, U.S.A) containing 4 mM hypoxanthine, 3 mg/ml bovine serum albumin, 0.23 mM pyruvate, 2 mM glutamine (all Sigma, U.S.A) and 100 IU/ml penicillin, 100 ug/ml Streptomycin. This medium was termed “HX-medium”. A media similar to the above but without HX are termed “maturation-medium”. Oocytes were isolated in HX-medium under a stereo microscope by manual rupture of follicles using a pair of 5.5-gauge needles. Spherical oocytes with intact cumulus cells connection and displaying germinal vesicle were categorized as cumulus-enclosed oocytes (CEO). Oocytes were rinsed 3 times in fresh HX-medium. Prior to each experimental set-up, all oocytes from 10–15 mice were pooled. Only oocytes with a germinal vesicle present were used and distributed in separate wells of a 4-well dish (Nuncoln, Denmark) containing 1 ml of HX-medium. Each well contained 20–30 oocytes and was cultured at 37° C. in 1000% humidity in air with 5% CO2. Each experiment was repeated at least 4 times. At the end of the culture period (i.e 24 h), oocytes with GV or GVBD, or polar body (PB) were counted using an inverted microscope with differential interference contrast equipment (Leica, German). The percentage of oocytes with GVBD per total number of oocytes (% GVBD) and the percentage of oocytes with PB formation per total number of oocytes (% PB) were calculated.

cumulus enclosed oocytes = details: AY added to cumulus enclosed oocytes; cited from earlier work
[4] = 22-OH-cholesterole 1 μg/ml + FSH 75 IU/L, with fetal calf serum
[5] = 22-OH-cholesterole 1 μg/ml + FSH 75 IU/L, without fetal calf serum
[6] = 22-OH-cholesterole 5 μg/ml + FSH 75 IU/L, without fetal calf serum
[7] = 22-OH-cholesterole 10 μg/ml + FSH 75 IU/L, with fetal calf serum
[8] = 22-OH-cholesterole 10 μg/ml + FSH 75 IU/L, without fetal calf serum
[9] = 22-OH-cholesterole 25 μg/ml + FSH 75 IU/L, with fetal calf serum
[10] = 22-OH-cholesterole 25 μg/ml + FSH 75 IU/L, without fetal calf serum
[11] = ketoconazole 5 μM in medium with FSH 75 IU/L
[12] = ketoconazole 10 μM in medium with FSH 75 IU/L
[13] = ketoconazole 20 μM in medium with FSH 75 IU/L
[14] = ketoconazole 0.1 μM + FSH 50 IU/L
[15] = ketoconazole 1 μM + FSH 50 IU/L
[16] = ketoconazole 10 μM + FSH 50 IU/L
[17] = ketoconazole 100 μM + FSH 50 IU/L
[18] = ketoconazole 1000 μM + FSH 50 IU/L

EGF: epidermal growth factor (NSDSECPLSHDGYCLHDGVCMYIEALDKYACNCVVGYIGERCQYRDLKWWELR; UniProt P01133 971-1023, looked up)
number of germinal vesicle oocytes reaching metaphase II (in words) (human oocytes): enhanced

CC(C)CCC(O)[C@@H](C)[C@H]1CC[C@H]2[C@@H]3CC=C4C[C@@H](O)CC[C@]4(C)[C@H]3CC[C@]12C (some centres unmarked) [22-OH-cholesterole, 22-hydroxycholesterol]
% GVBD [1, 4]: 41%
% PB (PB/GVBD) [1, 4]: 29%
Cumulus expansion [1, 4]: +++
% GVBD [1, 5]: 62%
% PB (PB/GVBD) [1, 5]: 25* %
% GVBD ([1]; 22-OH-cholesterole 3 μg/ml alone (no FSH), without fetal calf serum, HX-medium, 24 h): 26%
% GVBD [1, 6]: 72%
% PB (PB/GVBD) [1, 6]: 26* %
% GVBD [1, 7]: 39* %
% PB (PB/GVBD) [1, 7]: 14* %
% GVBD [1, 8]: 31* %
% PB (PB/GVBD) [1, 8]: 11* %
% GVBD [1, 9]: 19* %
% PB (PB/GVBD) [1, 9]: 28* %
% GVBD [1, 10]: 17* %
% PB (PB/GVBD) [1, 10]: 0* %
cumulus expansion with 22-hydroxycholesterol and FSH compared with FSH alone (in words) ([1]; tables 3 and 4, FSH 75 IU/L): occurs to similar degree
effect on FSH induced resumption of meiosis (in words) ([1]; tables 3 and 4, FSH 75 IU/L): prevents oocytes from resuming meiosis in the presence of FSH
effect on FF-MAS induced resumption of meiosis (in words) (cultured mouse oocytes): can prevent a FF-MAS induced resumption of meiosis

CC(=O)N1CCN(c2ccc(OCC3COC(Cn4ccnc4)(c4ccc(Cl)cc4Cl)O3)cc2)CC1 (centres unmarked) [Ketoconazole, ketoconazole]
% GVBD [2, 11]: 7%
% PB (PB/GVBD) [2, 11]: 57%
% GVBD [2, 12]: 7%
% PB (PB/GVBD) [2, 12]: 8%
% GVBD [2, 13]: 3%
% PB (PB/GVBD) [2, 13]: 0%
effect on FSH induced resumption of meiosis (in words) ([2]; ketoconazole 5-20 μM with FSH 75 IU/L): able to prevent oocytes resuming meiosis
% GVBD [3, 14]: 58%
% PB (PB/GVBD) [3, 14]: 33%
% GVBD [3, 15]: 48* %
% PB (PB/GVBD) [3, 15]: 30%
% GVBD [3, 16]: 35* %
% PB (PB/GVBD) [3, 16]: 25%
% GVBD [3, 17]: 20* %
% PB (PB/GVBD) [3, 17]: 19* %
% GVBD [3, 18]: 21* %
% PB (PB/GVBD) [3, 18]: 17* %
effect on FSH induced resumption of meiosis (in words) ([3]; ketoconazole with FSH 50 IU/L): prevents oocytes from resuming meiosis
effect on PB formation (in words) ([3]; ketoconazole with FSH 50 IU/L): dose-dependant inhibition of PB formation

AY-9944-A-7
accumulation of FF-MAS (in words) (cumulus enclosed oocytes): causes accumulation of FF-MAS
resumption of meiosis (in words) (cumulus enclosed oocytes): dose-dependant induction of resumption of meiosis
